Test in all cases: DTP human tumour cell line panel, 48 h
Assay [1] deals with ACHN.
In assay [2] the test system is BT-549.
For assay [3], the system named is COLO 205.
The subject of assay [4] is HL-60.
In assay [5] the test system is HOP-62.
The test system of assay [6] is HT-29.
In assay [7] the test system is MCF7.
The subject of assay [8] is MDA-MB-231.
Assay [9] relates to NCI-H226.
For assay [10], the system named is NCI-H522.
Assay [11] concerns OVCAR-3.
In assay [12] the test system is OVCAR-4.
The test system of assay [13] is OVCAR-8.
The subject of assay [14] is RXF 393.
The test system of assay [15] is SF-295.
Assay [16] concerns SF-539.
Assay [17] deals with SN12C.
The test system of assay [18] is TK-10.
Assay [19] relates to U-251.
Assay [20] has as its system UO-31.

The structures appear in SMILES notation.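 Values below derive from 48-hour exposures of cells grown in 96-well plates, with endpoints linearly interpolated between the two concentrations bracketing the appropriate inhibition level. Abbreviation: GI50, concentration required for 50% inhibition of growth.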 Activity calls are given as the source filed them. Cut-off read from the data, not from the text of the source: active = GI50 up to about 1.1 µM and inactive = higher.

A word on the GI50: it is the concentration that inhibits growth by half.

Regarding `N#C/C(=C/N1C(=O)/C(=C/c2ccc([N+](=O)[O-])cc2)SC1=S)c1nc2ccccc2s1`, the GI50 in [1] was 17.3 µM (inactive); in assay [2], 19.4 µM (inactive); in [3], 14.5 µM (inactive); in assay [4], 17.5 µM (inactive); in assay [5], 0.406 µM (active); in assay [6] it was 31.2 µM (inactive). The GI50 in [7] is 15.6 µM (inactive); in [8], 12.8 µM (inactive); in [9], 12.2 µM (inactive); in [10], 12.6 µM (inactive); in [11] it was 3.48 µM (inactive); in [12], 29.7 µM (inactive). Moreover, the GI50 in assay [13] is 37.9 µM (inactive); in assay [14], 19.3 µM (inactive); in assay [15] it was 11.3 µM (inactive); in assay [16], 28.9 µM (inactive); in assay [17], 23.5 µM (inactive); in assay [18] it was 26.9 µM (inactive). Besides, the GI50 was 15.2 µM (inactive) in assay [19] and 16.1 µM (inactive) in assay [20].
Consider `CC(C)(C)C1CCC2(CC1)CCN(CCCN1CCOCC1)CC2`, for which the GI50 in assay [1] was > 73.3 µM (inactive); in assay [2] it was > 100 µM (inactive); in assay [3], 16.3 µM (inactive); in [4] it was 13.1 µM (inactive); in assay [5], > 41.5 µM (inactive); in [6] it was 6.5 µM (inactive). Besides, the GI50 in [7] was > 100 µM (inactive); in assay [8] it was > 100 µM (inactive); in [9] it was > 95.7 µM (inactive); in [10], > 51.1 µM (inactive); in assay [11] it was > 100 µM (inactive); in assay [12], > 93.8 µM (inactive). Also, the GI50 in assay [13] is > 81.1 µM (inactive); in assay [14], 27.4 µM (inactive); in [15], > 47.1 µM (inactive); in assay [16] it was 18.7 µM (inactive); in assay [17] it was > 86.3 µM (inactive); in [18] it was > 100 µM (inactive). The GI50 in [19] was > 35.2 µM (inactive); in assay [20], 48.3 µM (inactive).
On to `O=C1CCC(=O)N1CNc1ccc2c(c1)Sc1ccccc1O2`, for which the GI50 in [1] was 47 µM (inactive); in [2] it was 26.6 µM (inactive); in [3], 18 µM (inactive); in assay [4] it was 4.99 µM (inactive); in assay [5] it was 43.7 µM (inactive); in assay [6], 23.5 µM (inactive). Besides, the GI50 in assay [7] was 43.1 µM (inactive); in assay [8], 41.9 µM (inactive); in [9] it was 20.4 µM (inactive); in assay [10], 23.8 µM (inactive); in assay [11] it was 26.5 µM (inactive); in assay [12], 33.7 µM (inactive). The GI50 in [13] is 25.9 µM (inactive); in assay [14] it was 22.5 µM (inactive); in assay [15] it was 29.4 µM (inactive); in [16] it was 15.6 µM (inactive); in [17], 27.6 µM (inactive); in assay [18], 38 µM (inactive). Also, the results for the GI50 in assay [19] and in [20] were 30.3 µM (inactive) and 23.2 µM (inactive), respectively.
Turning to `C[C@H](CCc1nc(C#N)c(N)o1)[C@H]1CC[C@H]2[C@@H]3[C@@H](O)CC4C[C@@H](O)CC[C@]4(C)[C@H]3C[C@@H](O)[C@]12C` (stereo not given in full), the GI50 in [1] is 26.4 µM (inactive); in assay [2], 9.86 µM (inactive); in assay [3], 18.2 µM (inactive); in assay [4] it was 3.62 µM (inactive); in assay [5] it was 26.5 µM (inactive); in [6], 20.2 µM (inactive). Also, the GI50 in assay [7] is 33.1 µM (inactive); in assay [8], 25.6 µM (inactive); in assay [9] it was 21.2 µM (inactive); in assay [10], 4.03 µM (inactive); in assay [11], 17.7 µM (inactive); in assay [12], 1.99 µM (inactive). The GI50 is 12.9 µM (inactive) in assay [13]; 16 µM (inactive) in assay [14]; 22.8 µM (inactive) in assay [15]; 17.9 µM (inactive) in assay [16]; 20.6 µM (inactive) in assay [17]; 24.2 µM (inactive) in assay [18]. Besides, the GI50 in assay [19] is 20.7 µM (inactive); in assay [20], 20.6 µM (inactive).
As to `O=C(c1ccc(Cl)c(Cl)c1)N(Cc1cccnc1)C(=S)N(Cc1cccnc1)C(=O)c1ccc(Cl)c(Cl)c1`, the GI50 in assay [1] was 18.8 µM (inactive); in assay [2], 22.9 µM (inactive); in assay [3], 15.6 µM (inactive); in [4], 49.3 µM (inactive); in assay [5] it was 27.4 µM (inactive); in assay [6], 24 µM (inactive). Also, the GI50 in assay [7] was 7.06 µM (inactive); in [8] it was 33.1 µM (inactive); in assay [9] it was 31.8 µM (inactive); in assay [10] it was 20.9 µM (inactive); in [11] it was 25.5 µM (inactive); in assay [12], 25.8 µM (inactive). Besides, the GI50 in assay [13] was 30.5 µM (inactive); in assay [14] it was 28.4 µM (inactive); in assay [15] it was 24.4 µM (inactive); in assay [16], 22.1 µM (inactive); in assay [17], 24.1 µM (inactive); in [18], 29.9 µM (inactive). In addition, the GI50 is 29.3 µM (inactive) in assay [19] and 17.9 µM (inactive) in [20].
As to `C/C(=N\NC(=S)NC(C)C)c1nc2cccnc2[nH]1`, the GI50 in assay [1] was 21.9 µM (inactive); in assay [2] it was 15.5 µM (inactive); in assay [3] it was 11 µM (inactive); in assay [4], 8.93 µM (inactive); in assay [5], 18 µM (inactive); in assay [6] it was 12.8 µM (inactive). Moreover, the GI50 in assay [7] is 21.9 µM (inactive); in assay [8], > 26.7 µM (inactive); in assay [9] it was 9.25 µM (inactive); in assay [10] it was 13.8 µM (inactive); in assay [11], 6.62 µM (inactive); in assay [12], 6.15 µM (inactive). Further, the GI50 in assay [13] was 7.98 µM (inactive); in assay [14] it was 33.8 µM (inactive); in [15], 12 µM (inactive); in [16], > 37.9 µM (inactive); in [17], > 56.5 µM (inactive); in assay [18] it was 21.3 µM (inactive). The figures for the GI50 in assay [19] and in assay [20] were 21.3 µM (inactive) and 3.78 µM (inactive), respectively.
Consider `CC1(C)C2C=C(CCN3CCOCC3)CC1C2` (stereo not given), for which the GI50 in assay [1], in assay [2], in assay [3], in assay [4], in [5] and in [6] was > 100 µM (inactive) throughout. For the same compound, the GI50 in assay [7] is > 100 µM (inactive); in [8], > 100 µM (inactive); in [9], 64.9 µM (inactive); in [10], > 100 µM (inactive); in [11] it was > 100 µM (inactive); in assay [12], > 100 µM (inactive). In addition, the GI50 in assay [13], in assay [14], in assay [15], in [16], in [17] and in [18] was > 100 µM (inactive) in each case. The GI50 in [19] and in assay [20] was > 100 µM (inactive) each time.
Consider `OC(CCN1CCN(CCOC(c2ccc(F)cc2)c2ccc(F)cc2)CC1)c1ccc(Br)cc1` (stereo not given), for which the GI50 in assay [1] was 4.76 µM (inactive); in assay [2] it was 5.83 µM (inactive); in assay [3] it was 1.85 µM (inactive); in assay [4] it was 2.77 µM (inactive); in assay [5], 6.12 µM (inactive); in assay [6], 3.32 µM (inactive). The GI50 in assay [7] was 3.37 µM (inactive); in [8] it was 5.74 µM (inactive); in [9] it was 5.7 µM (inactive); in [10], 5.74 µM (inactive); in [11] it was 3.34 µM (inactive); in assay [12] it was 4.01 µM (inactive). Also, the GI50 in [13] was 2.02 µM (inactive); in assay [14], 3.94 µM (inactive); in [15], 4.62 µM (inactive); in assay [16], 2.3 µM (inactive); in assay [17], 2.68 µM (inactive); in assay [18], 6.76 µM (inactive). The GI50 was 4.11 µM (inactive) in assay [19] and 2.22 µM (inactive) in assay [20].
Regarding `CNCCCNc1c2ccccc2nc2cccc([N+](=O)[O-])c12`, the GI50 in assay [1] was 0.00251 µM (active); in assay [2], 0.0023 µM (active); in assay [3] it was 0.0015 µM (active); in [4], 0.01 µM (active); in [5], 0.00373 µM (active); in [6], 0.00337 µM (active). The GI50 in [7] is 0.00143 µM (active); in assay [8], 0.00158 µM (active); in assay [9], 0.018 µM (active); in [10] it was 0.000449 µM (active); in assay [11], 0.00449 µM (active); in assay [12] it was 0.00174 µM (active). Besides, the GI50 was 0.00372 µM (active) in assay [13]; 0.000346 µM (active) in assay [14]; 0.0034 µM (active) in [15]; 0.00634 µM (active) in assay [16]; 0.00561 µM (active) in assay [17]; 0.00675 µM (active) in assay [18]. Further, the GI50 in assay [19] is 0.00344 µM (active); in [20] it was 0.00845 µM (active).
In the case of `Cc1cc(=O)oc2cc(OC(=O)N(CCCl)CCCl)ccc12`, the GI50 is > 100 µM (inactive) in assay [1]; 44.7 µM (inactive) in assay [2]; > 100 µM (inactive) in assay [3]; > 100 µM (inactive) in assay [4]; > 100 µM (inactive) in [5]; > 100 µM (inactive) in assay [6]. Besides, the GI50 was > 100 µM (inactive) in [7]; > 100 µM (inactive) in [8]; > 100 µM (inactive) in [9]; 79.1 µM (inactive) in assay [10]; > 100 µM (inactive) in [11]; > 100 µM (inactive) in assay [12]. The GI50 in assay [13], in assay [14], in [15], in assay [16], in assay [17] and in assay [18] was > 100 µM (inactive) throughout. Moreover, the GI50 in [19] and in assay [20] was > 100 µM (inactive) in each case.

For the origin of these results see ChEMBL document CHEMBL1201862, “PubChem BioAssay data set” (2004).
